Experimental data: patent publication US20240287042A1, “NOVEL COMPOUND HAVING INHIBITORY ACTIVITY AGAINST PENDRIN, AND PHARMACEUTICAL USES THEREOF” (UIF (University Industry Foundation), Yonsei University, priority 2021, published 2024)

Columns and labels:
CHO-K1 cells = experiment: Cell viability, MTS colorimetric assay; format: cell-based, Chinese hamster; conditions: 24 hours; for Cytotoxicity: 30 μM; for Change in survival rate: 100 μM
Protocol: Chinese hamster ovary (CHO)-K1 cells were cultured in DMEM medium containing 10% fetal bovine serum (FBS), 100 units/ml of penicillin and 100 μg/ml streptomycin.
The cell viability was measured using the CellTiter 96® AQueous One Solution cell proliferation assay kit (Promega, Madison, WI, USA). CHO-K1 cells were cultured with medium supplemented with 10% FBS in 96-well plates for 24 hours, and then compounds or vehicle were treated in the medium, and after 24 hours, the medium was completely removed, and the MTS assay was performed as recommended in the supplier's protocol. The absorbance of Formazan was measured at a wavelength of 490 nm using an Infinite M200 microplate reader (Tecan, Austria).

human WT SLC26A9 = target: T1, human WT SLC26A9 (Homo sapiens, UniProt Q7LBE3); experiment: SLC26A9 Cl−/I− exchange activity, YFP fluorescence in LN-215 cells; format: cell-based; conditions: 100 μM, FIG. 3
T1 construct: expressed in transfected cells
T1 sequence (Q7LBE3 1-791): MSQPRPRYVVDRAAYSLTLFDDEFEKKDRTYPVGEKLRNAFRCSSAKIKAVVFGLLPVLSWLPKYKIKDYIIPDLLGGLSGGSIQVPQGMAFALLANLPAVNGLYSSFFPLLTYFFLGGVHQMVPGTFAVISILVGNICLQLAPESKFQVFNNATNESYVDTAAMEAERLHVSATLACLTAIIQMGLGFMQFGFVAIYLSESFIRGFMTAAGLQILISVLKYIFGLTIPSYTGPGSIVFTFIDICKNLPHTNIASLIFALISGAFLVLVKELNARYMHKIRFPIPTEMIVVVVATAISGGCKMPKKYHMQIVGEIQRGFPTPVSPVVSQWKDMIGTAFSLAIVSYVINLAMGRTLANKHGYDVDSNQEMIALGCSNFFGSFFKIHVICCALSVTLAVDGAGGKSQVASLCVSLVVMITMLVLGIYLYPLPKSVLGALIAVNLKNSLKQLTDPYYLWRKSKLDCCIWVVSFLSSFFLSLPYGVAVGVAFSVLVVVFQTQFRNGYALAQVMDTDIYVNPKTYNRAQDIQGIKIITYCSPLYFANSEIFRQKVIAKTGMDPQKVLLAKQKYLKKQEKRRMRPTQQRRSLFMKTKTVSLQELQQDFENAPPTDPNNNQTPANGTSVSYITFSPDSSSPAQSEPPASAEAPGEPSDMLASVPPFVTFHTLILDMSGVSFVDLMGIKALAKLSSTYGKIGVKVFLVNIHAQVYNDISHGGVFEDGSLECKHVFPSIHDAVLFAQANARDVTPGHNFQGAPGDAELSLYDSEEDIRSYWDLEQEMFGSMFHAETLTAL
Protocol: (§1) Chinese hamster ovary (CHO)-K1 cells or LN-215 cells were cultured in DMEM medium containing 10% fetal bovine serum (FBS), 100 units/ml of penicillin and 100 μg/ml streptomycin. CHO-K1 cells or LN-215 cells were stably transfected with pcDNA3.1 encoding the halide sensor YFP-H148Q/I152L/F46L and human wild-type (WT)-SLC26A9. Fisher rat thyroid (FRT) cells stably transfected with YFP-H148Q/I152L/F46L and human wild type (WT)-CFTR or human wild type (WT)-ANO1 were cultured in DMEM/F-12 medium containing 10% fetal bovine serum (FBS), 100 units/ml of penicillin, and 100 μg/ml of streptomycin.
LN-215 cells expressing human WT SLC26A9 and YFP-F46L/H148Q/I152L, and FRT cells expressing human WT CFTR or ANO1 and YFP-F46L/H148Q/I152L were plated in 96-well microplates at a density of 2×10^4 cells per well, and cultured for 48 hours. […] After culturing at 37° C. for 10 minutes, the 96-well plate was located on the FLUOstar Omega Microplate Reader (BMG Labtech, Ortenberg, Germany) for a fluorescence assay. For assay of the activity of […], fluorescence was recorded continuously (400 ms per point) for 1 second (baseline), whereby each well was assayed individually for SLC26A9-mediated I-influx. Then, 50 μL of NaI-substituted HEPES buffered solution (replacing NaCl with NaI) was added using a liquid injector at 1 second, and YFP fluorescence was recorded for 6 seconds. […]

human WT CFTR = target: T2, human WT CFTR (Homo sapiens, UniProt P13569); experiment: CFTR I− transport activity, YFP fluorescence, forskolin-activated; format: cell-based; conditions: for Effect on CFTR activity: 100 μM
T2 construct: expressed in transfected cells
Protocol: as §1
LN-215 cells expressing human WT SLC26A9 and YFP-F46L/H148Q/I152L, and FRT cells expressing human WT CFTR or ANO1 and YFP-F46L/H148Q/I152L were plated in 96-well microplates at a density of 2×10^4 cells per well, and cultured for 48 hours. […] After culturing at 37° C. for 10 minutes, the 96-well plate was located on the FLUOstar Omega Microplate Reader (BMG Labtech, Ortenberg, Germany) for a fluorescence assay. For assay of the activity of […], fluorescence was recorded continuously (400 ms per point) for 1 second (baseline), whereby each well was assayed individually for SLC26A9-mediated I-influx. Then, 50 μL of NaI-substituted HEPES buffered solution (replacing NaCl with NaI) was added using a liquid injector at 1 second, and YFP fluorescence was recorded for 6 seconds. For assay of the activity of CFTR, fluorescence was recorded continuously (400 ms per point) for 2 seconds (baseline), whereby each well was assayed individually for CFTR-mediated I^− influx. Then, 50 μL of NaI-substituted HEPES buffered solution (replacing NaCl with NaI) was added using a liquid injector at 2 second, and YFP fluorescence was recorded for 8 seconds. For assay of the activity of ANO1, fluorescence was recorded continuously (400 ms per point) for 1 second (baseline), whereby each well was assayed individually for ANO1-mediated I^− influx. […] The initial iodide influx rate was determined from the initial slope of fluorescence by nonlinear regression, after the injection of iodide. […]

T2 sequence (P13569 whole entry): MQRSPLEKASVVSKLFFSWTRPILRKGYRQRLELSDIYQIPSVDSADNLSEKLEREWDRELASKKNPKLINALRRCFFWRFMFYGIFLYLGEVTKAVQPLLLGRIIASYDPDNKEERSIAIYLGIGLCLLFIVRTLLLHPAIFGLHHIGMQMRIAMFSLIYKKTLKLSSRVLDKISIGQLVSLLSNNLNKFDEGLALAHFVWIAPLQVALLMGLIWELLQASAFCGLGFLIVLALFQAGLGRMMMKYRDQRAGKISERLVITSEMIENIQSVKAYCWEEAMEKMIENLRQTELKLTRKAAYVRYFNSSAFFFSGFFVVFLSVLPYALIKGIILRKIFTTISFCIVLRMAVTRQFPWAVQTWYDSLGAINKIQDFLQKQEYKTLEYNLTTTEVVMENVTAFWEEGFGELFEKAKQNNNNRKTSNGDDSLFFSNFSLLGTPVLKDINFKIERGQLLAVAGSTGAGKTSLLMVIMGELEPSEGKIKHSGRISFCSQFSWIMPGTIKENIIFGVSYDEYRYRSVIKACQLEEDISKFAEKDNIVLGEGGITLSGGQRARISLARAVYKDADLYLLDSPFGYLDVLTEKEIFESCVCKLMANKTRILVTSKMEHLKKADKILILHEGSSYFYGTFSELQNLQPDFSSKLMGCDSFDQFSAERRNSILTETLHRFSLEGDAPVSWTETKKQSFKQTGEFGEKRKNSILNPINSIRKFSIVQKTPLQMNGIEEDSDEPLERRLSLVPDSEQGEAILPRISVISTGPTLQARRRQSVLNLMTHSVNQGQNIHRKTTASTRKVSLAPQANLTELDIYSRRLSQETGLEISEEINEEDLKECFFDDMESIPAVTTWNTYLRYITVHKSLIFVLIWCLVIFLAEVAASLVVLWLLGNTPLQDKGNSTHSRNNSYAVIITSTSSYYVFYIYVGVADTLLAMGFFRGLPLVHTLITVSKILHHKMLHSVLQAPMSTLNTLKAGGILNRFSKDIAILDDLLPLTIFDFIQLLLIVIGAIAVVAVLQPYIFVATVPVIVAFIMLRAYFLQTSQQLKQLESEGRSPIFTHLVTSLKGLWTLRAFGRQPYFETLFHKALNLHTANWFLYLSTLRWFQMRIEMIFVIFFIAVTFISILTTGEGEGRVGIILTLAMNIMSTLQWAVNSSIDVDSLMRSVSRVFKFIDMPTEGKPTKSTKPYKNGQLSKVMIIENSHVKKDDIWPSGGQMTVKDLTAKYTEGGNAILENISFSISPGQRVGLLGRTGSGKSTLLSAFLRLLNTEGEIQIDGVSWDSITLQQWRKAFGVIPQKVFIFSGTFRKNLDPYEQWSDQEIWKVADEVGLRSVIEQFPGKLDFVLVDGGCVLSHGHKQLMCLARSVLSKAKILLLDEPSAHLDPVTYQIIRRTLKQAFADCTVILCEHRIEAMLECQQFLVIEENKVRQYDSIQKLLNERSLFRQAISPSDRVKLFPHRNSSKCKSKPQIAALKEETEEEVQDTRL

| Structure (SMILES) | Cytotoxicity (CHO-K1 cells) | Change in survival rate (CHO-K1 cells) | Effect on activity of SLC26A9 (human WT SLC26A9) | inhibition at 100 µM (human WT CFTR; FRT-YFP cells, FIG. 3) [%] | Effect on CFTR activity (human WT CFTR; Example 14, CHO-K1 cells, FIG. 16) | Effect on CFTR activity (human WT CFTR; FRT-YFP cells, FIG. 3) |
| --- | --- | --- | --- | --- | --- | --- |
| Cc1ccc(C)c(N2CCN(C(=O)Cc3c(C(=O)O)[nH]c4ccc(Cl)cc34)CC2)c1 [YPI-H05, 5-chloro-3-(2-(4-(2,5-dimethylphenyl)piperazin-1-yl-)-2-oxoethyl)-1H-indole-2-carboxylic acid] | no cytotoxicity | around 10% | did not inhibit | ~50 |  |  |
| Cc1ccc2[nH]c(C(=O)O)c(CC(=O)N3CCN(c4c(C)cccc4Cl)CC3)c2c1 [YPI-A4948, 3-(2-(4-(2-Chloro-6-methylphenyl)piperazin-1-yl)-2-oxoethyl)-5-methyl-1H-indole-2-carboxylic acid] | no cytotoxicity | around 10% | did not inhibit |  | almost no effect | almost no effect |
